Assay results from US7879863B2, “Aniline derivatives” (Ajinomoto Co., Inc., priority 2004, dated 2011).
Marks after values point to notes of the source that are not given here.

What was measured:
[1] = system: acetic acid writhing model; assay: Efficacy evaluation in acetic acid writhing model; format: in vivo, male ICR mice; conditions: mice, writhing number 5 to 20 min after 0.9% acetic acid i.p., mean ± standard error
Method: Efficacy evaluation in acetic acid writhing model
The acetic acid writhing model was subjected to evaluation according to the method of European Journal of Pharmacology, 352, 47-52 (1998). To be specific, a solution of the test compound adjusted to the objective concentration with a 0.5 (w/v) % tragacanth gum solution was orally administered to male ICR mice (CHARLES RIVER LABORATORIES JAPAN, INC.) at 5 mL/kg, and a 0.9% acetic acid solution adjusted with a physiological saline was intraperitoneally administered 60 min later at 5 mL/kg. The number of writhing for 15 min from 5 min to 20 min after administration of a 0.9% acetic acid solution was counted and taken as the writhing number of the test compound. A mouse, to which a 0.5 (w/v) % tragacanth gum (TG) solution was orally administered at 5 ml/kg instead of the test compound, was used as a control. The suppression rate (%) was calculated by subtracting the relative value of each mouse from the relative value when the average value of the control group is 100%. As a Reference Example, the value obtained by oral administration of a positive control drug, indomethacin, instead of the test compound is shown. […] For testing the significant difference, Dunnett's t-test was used, and statistic significance as shown by P<0.05 and P<0.01 relative to the TG control group is shown in the Table with * and **, respectively.

[2] = system: DSS-induced enteritis model; assay: Efficacy evaluation in DSS-induced enteritis model; format: in vivo, female CBA mice; conditions: mice, 5% DSS, relative to non-treatment group = 100%, mean ± standard error
From the text: Efficacy evaluation in DSS-induced enteritis model
The dextran sodium sulfate (DSS)-induced enteritis model was subjected to evaluation by a partly-modified methods of Gastroenterology, 98, 694-702 (1990) and Cytokine, 11, 890-896 (1998). A 5 (w/v) % DSS (manufactured by Sigma, MW 5,000) solution was freely taken by female CBA mice (CHARLES RIVER LABORATORIES JAPAN, INC.) for a given period to induce enteritis. A solution of the test compound adjusted to the objective concentration with a 0.5 (w/v) % tragacanth gum (TG) solution was orally administered at 5 mL/kg. Upon autopsy, the length, weight and the like of the large intestine were evaluated and used as an index of the onset of inflammatory enteritis. As a control, a mouse, to which a 0.5 (w/v) % TG solution was orally administered at 5 mL/kg instead of the test compound, was used. The length and weight of the large intestine are expressed as the relative value when the average value of the non-treatment group is 100%. As a Reference Example, the values obtained by oral administration of a positive control drug, salazosulfapyridine, instead of the test compound are shown. […] For testing the significant difference, Dunnett's t-test was used, and statistic significance as shown by P<0.05 and P<0.01 relative to the TG control group is shown in the Table with * and **, respectively.

[3] = molecular target: T1, human activated tissue kallikrein (Homo sapiens, UniProt P06870); assay: Measurement of tissue kallikrein inhibitory activity; format: biochemical; conditions: activated tissue kallikrein activity (initial rate) inhibited by 50%; substrate D-valyl-L-leucyl-L-arginyl-p-nitroanilide; 37° C.
T1 construct: 6xHis (C); made in house; host or cells: baculovirus / Sf21 insect cells
T1 sequence (P06870 25-262): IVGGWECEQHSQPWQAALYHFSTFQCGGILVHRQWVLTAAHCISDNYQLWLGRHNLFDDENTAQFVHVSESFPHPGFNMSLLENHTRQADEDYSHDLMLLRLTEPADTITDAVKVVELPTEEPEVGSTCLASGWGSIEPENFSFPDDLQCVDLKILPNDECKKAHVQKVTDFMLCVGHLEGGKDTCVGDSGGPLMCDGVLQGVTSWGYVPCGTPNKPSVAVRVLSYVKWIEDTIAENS
Method: Measurement of tissue kallikrein inhibitory activity
Expression and purification of human activated tissue kallikrein was performed according to the method of Angermann (A. Angermann et al., Eur. J. Biochem., 206, 225-233 (1992)). That is, a gene was prepared by adding 6 residues of histidine to the C-terminal side of human pancreas kallikrein gene (D. Fukuchima et al, Biochemistry, 24, 8037-8043 (1985)), and tissue prokallikrein was expressed by a system using a baculovirus-insect cell (Sf21). Purified human tissue kallikrein was obtained from the culture supernatant by purification using a nickel chelate column (Ni-NTA, QIAGEN K. K.), digestion with TPCK trypsin and further nickel chelate column. To a solution (100 μL) of the human activated tissue kallikrein adjusted to 0.0625 μg/mL with an assay buffer (100 mM tris-hydrochloride buffer (pH 8.4) containing 0.2M NaCl, 0.02% Tween 20, and 0.1% PEG 6000) was added an assay buffer (containing 2% DMSO) solution (50 μL) of the test compound adjusted to the objective concentration, and the mixture was incubated at 37° C. for 10 minutes (min=minutes). Then, a 4 mM solution (50 μL) of D-valyl-L-leucyl-L-arginyl-p-nitroanilide hydrochloride (BACHEM AG) adjusted with the assay buffer was added, the absorbance was measured and the reaction rate was determined. As a control, a DMSO solution (50 μL) was added instead of the solution of the test compound. Absorbance was measured at a wavelength of 405 nm at 60 second intervals for 90 min using a Benchmark Plus Microplate Reader (BIO RAD). The negative logarithm value (abbreviated as pIC50) of the test compound concentration when the activated tissue kallikrein activity (initial rate) was inhibited by 50% without addition of the test compound was used as an index of the activated tissue kallikrein inhibitory activity.

| SMILES | suppression rate (%) ([1]; 3 mg/kg oral) | suppression rate (%) ([1]; 10 mg/kg oral) | suppression rate (%) ([1]; 30 mg/kg oral) | large intestine length (%) ([2]; 10 mg/kg oral) | large intestine weight (%) ([2]; 10 mg/kg oral) | IC50 [3] [nM] | large intestine length (%) ([2]; 30 mg/kg oral) | large intestine weight (%) ([2]; 30 mg/kg oral) |
| --- | --- | --- | --- | --- | --- | --- | --- | --- |
| CC(C)[C@H](CNC(=O)Cc1ccccn1)Nc1ccc(C(F)(F)F)cc1 [Compound A-8] | 33.7 ± 10.1* % | 52.7 ± 7.5** % | 63.5 ± 6.6** % | 80.4 ± 1.8** % | 130.5 ± 5.28** % | 91.2 |  |  |
| CCN1CCC(O)c2cc(C(F)(F)F)ccc21 (centres unmarked) [Compound E-6] | 58.7 ± 7.0** % | 58.7 ± 5.8** % | 64.9 ± 8.3** % | 85.2 ± 2.4** % | 117.5 ± 5.1** % | 251 | 87.9 ± 2.0** % | 110.7 ± 4.1** % |
